Structures are written as SMILES. Activity calls are given as the source filed them.

Some targets named below: Cytochrome P450 3A4 (Homo sapiens, UniProt P08684); Cytochrome P450 2C9 (Homo sapiens, UniProt P11712); Cytochrome P450 2D6 (Homo sapiens, UniProt P10635).
The subject of data set [1] is Streptococcus sp. 'group A'. The experiment in a line: Streptococcus pyogenes SK(-)GAS viability under kanamycin – luminescence, BacTiterGlo, confirmation, counter-screen for streptokinase expression inhibitor project, dose response (AID 1900). In kind it is functional, organism-based. (In general: A counterscreen serves to expose hits that act by an unwanted route or on another target.)

The target of a further data set is T1, Streptokinase A (Streptococcus pyogenes serotype M1, UniProt P10520).
T1 sequence (P10520 whole entry): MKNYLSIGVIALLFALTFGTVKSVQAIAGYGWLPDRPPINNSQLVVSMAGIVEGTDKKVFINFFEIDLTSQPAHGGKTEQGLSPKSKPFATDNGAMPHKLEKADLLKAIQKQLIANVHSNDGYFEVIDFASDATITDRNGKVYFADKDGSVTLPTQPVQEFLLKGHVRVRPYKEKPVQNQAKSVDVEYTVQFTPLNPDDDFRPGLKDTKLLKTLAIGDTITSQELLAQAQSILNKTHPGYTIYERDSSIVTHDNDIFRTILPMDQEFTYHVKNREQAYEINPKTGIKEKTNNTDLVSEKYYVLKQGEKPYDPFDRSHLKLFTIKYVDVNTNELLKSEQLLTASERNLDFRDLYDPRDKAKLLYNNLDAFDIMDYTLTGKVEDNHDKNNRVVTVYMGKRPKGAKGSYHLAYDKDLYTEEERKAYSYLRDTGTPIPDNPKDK
The data set can be described thus: viability-normalized secreted streptokinase activity reduction – plasminogen activation absorbance, OD405, dose response (AID 1914).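 Further: secreted streptokinase activity via plasminogen activation per viability signal from cell pellet.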 The class given is functional, Streptococcus pyogenes M1 GAS.

The subject of the next data set is Streptococcus. The data set can be described thus: GAS UMAA2166 growth inhibition – luminescence, BacTiterGlo, counter-screen for streptokinase expression inhibitor project, dose response (AID 1915).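 Further: potency for reduction of bacterial viability or growth.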 The class given is functional, organism-based.
The next data set concerns the target T2, Cytochrome P450 1A2 (Homo sapiens, UniProt P05177).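 Further: PubChem cytochrome P450 panel assay, CYP1A2 panel member.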
T2 sequence (P05177 whole entry): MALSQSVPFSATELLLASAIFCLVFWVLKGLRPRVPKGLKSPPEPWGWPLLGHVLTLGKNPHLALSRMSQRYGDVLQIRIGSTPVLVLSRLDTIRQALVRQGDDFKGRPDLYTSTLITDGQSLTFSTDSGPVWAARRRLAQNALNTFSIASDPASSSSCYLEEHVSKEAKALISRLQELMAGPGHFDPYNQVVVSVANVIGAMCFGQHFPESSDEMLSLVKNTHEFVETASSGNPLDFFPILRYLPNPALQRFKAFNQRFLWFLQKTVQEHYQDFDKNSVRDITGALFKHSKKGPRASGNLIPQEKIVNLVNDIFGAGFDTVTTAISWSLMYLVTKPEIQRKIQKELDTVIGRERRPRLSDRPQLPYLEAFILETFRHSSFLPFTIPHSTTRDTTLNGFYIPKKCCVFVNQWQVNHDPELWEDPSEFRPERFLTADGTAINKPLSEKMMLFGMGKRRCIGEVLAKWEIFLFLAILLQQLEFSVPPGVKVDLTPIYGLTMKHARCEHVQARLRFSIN

For a further data set, the target named is Cytochrome P450 2C19 (Homo sapiens, UniProt P33261). The experiment in a line: Cytochrome panel assay with activity outcomes. Panel member name: p450-cyp2c19 Compounds with AC50 equal or less than 10 uM are considered active. The class given is functional.
Sequence of Cytochrome P450 2C19 (P33261 whole entry): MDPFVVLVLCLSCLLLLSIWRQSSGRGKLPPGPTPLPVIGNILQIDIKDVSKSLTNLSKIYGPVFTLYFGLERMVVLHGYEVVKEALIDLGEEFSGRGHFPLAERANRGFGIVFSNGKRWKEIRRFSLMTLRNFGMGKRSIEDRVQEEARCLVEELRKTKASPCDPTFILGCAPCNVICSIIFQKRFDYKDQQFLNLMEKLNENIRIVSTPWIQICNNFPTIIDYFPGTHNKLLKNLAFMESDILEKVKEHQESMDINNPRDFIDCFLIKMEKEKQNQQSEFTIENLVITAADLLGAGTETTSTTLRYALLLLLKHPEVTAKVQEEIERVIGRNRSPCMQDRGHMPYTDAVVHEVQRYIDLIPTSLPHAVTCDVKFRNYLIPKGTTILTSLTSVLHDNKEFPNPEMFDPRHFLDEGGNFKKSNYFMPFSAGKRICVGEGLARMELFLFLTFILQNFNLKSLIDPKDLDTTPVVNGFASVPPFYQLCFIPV
For data set [2], the target named is FAD-linked sulfhydryl oxidase ALR (Homo sapiens, UniProt P55789). The data set can be described thus: ALR-catalysed DTT oxidation blockers – biochemical, H2O2 detection, luminescence, cherry-pick, dose response (AID 493248).
Sequence of FAD-linked sulfhydryl oxidase ALR (P55789 whole entry): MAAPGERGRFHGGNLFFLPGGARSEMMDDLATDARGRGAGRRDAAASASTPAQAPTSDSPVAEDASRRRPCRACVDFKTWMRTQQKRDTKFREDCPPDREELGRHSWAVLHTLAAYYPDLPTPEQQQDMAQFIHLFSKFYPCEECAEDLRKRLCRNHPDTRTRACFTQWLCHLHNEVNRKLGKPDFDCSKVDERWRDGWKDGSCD
The target in the next data set is Paired box protein Pax-8 (Homo sapiens, UniProt Q06710). The experiment in a line: PAX8 transcriptional activity inhibition in RMG-I – RMG-I cells, luciferase, cherry-pick, dose response (AID 687027).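 Further: luciferase reporter driven by Pax8 target thyroperoxidase promoter measured by SteadyGlo luminescence.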 In kind it is functional, cell-based.
Sequence of Paired box protein Pax-8 (Q06710 whole entry): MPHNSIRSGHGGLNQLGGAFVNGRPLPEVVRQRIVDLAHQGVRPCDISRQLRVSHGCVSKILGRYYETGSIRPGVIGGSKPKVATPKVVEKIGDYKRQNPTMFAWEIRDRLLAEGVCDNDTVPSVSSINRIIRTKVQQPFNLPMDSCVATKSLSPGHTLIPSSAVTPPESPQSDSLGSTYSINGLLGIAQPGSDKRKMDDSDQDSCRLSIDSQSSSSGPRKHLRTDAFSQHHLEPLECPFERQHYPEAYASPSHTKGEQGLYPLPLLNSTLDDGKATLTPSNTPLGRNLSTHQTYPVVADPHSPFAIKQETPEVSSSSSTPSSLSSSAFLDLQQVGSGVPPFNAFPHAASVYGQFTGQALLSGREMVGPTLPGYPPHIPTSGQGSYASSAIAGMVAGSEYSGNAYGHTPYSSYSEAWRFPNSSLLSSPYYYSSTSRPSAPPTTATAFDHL

Sequence of Cytochrome P450 2D6 (P10635 whole entry): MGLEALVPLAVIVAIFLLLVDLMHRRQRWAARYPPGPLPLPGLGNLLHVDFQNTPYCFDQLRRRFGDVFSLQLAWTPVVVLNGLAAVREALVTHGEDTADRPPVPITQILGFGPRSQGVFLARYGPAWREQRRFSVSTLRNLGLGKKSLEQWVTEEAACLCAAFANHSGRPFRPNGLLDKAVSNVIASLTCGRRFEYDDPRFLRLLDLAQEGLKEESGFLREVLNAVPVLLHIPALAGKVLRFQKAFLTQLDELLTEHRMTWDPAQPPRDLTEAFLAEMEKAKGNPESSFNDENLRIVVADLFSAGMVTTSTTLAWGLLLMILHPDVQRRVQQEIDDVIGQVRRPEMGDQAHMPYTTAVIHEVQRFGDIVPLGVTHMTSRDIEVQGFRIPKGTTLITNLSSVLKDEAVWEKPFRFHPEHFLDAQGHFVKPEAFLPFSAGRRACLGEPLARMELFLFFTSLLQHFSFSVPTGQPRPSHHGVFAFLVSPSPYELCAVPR
Sequence of Cytochrome P450 2C9 (P11712 whole entry): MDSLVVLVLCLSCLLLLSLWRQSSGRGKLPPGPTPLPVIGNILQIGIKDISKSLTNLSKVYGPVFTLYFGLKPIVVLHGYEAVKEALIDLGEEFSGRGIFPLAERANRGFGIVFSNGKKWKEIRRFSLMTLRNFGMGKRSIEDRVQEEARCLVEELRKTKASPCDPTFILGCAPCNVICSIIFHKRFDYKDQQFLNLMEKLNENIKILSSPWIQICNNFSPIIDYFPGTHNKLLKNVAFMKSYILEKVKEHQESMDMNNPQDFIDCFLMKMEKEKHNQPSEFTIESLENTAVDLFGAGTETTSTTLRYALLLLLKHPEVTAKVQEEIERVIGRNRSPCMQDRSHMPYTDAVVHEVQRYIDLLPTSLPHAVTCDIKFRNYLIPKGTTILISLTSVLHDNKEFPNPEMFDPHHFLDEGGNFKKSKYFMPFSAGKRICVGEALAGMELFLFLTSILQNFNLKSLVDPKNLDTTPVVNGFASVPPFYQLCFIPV
Sequence of Cytochrome P450 3A4 (P08684 whole entry): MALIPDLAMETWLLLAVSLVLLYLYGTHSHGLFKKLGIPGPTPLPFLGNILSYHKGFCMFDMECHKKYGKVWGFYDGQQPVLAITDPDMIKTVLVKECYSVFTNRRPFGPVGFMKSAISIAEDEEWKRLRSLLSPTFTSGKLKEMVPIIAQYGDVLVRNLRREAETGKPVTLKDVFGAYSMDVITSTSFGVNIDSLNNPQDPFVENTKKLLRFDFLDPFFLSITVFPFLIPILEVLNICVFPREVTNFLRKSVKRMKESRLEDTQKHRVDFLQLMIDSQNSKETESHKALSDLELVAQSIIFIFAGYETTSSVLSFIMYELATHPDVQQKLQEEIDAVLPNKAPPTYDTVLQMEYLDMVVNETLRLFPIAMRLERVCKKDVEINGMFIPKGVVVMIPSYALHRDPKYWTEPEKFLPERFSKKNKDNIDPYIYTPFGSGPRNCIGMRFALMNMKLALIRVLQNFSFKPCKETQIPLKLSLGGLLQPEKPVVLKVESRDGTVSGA

For `CC(C)C(=O)Nc1ccc(C(=O)NNC(=O)C(c2ccccc2)c2ccccc2)cc1`, the AC50 on Cytochrome P450 3A4 was 4.47 µM (inconclusive); on Cytochrome P450 2C9, 5.01 µM (inconclusive).

Turning to `CCOC(=O)c1cnn(-c2nc(-c3cccc(F)c3)cs2)c1C(F)(F)F`, the EC50 in data set [1] was 9.99 µM (active); on Streptokinase A, 20.8 µM (active); in the data set on Streptococcus, 17.6 µM (active).

With `CCN(CC)C(=O)C1=C(C)N=C(S)NC1c1cn(-c2ccccc2)nc1-c1ccc(Cl)cc1` (stereo not drawn), the AC50 is 28.2 µM (inconclusive) at Cytochrome P450 1A2 and 17.8 µM (inconclusive) on Cytochrome P450 2C19 (read-out: AC50).

Turning to `O=C(Cc1ccccc1)NNc1c2ccccc2nc2ccccc12`, the AC50 in data set [2] was 2.43 µM (active).

As for `CC(C)CN(C(=O)COc1ccc(-c2nnco2)cc1)C1CCS(=O)(=O)C1` (stereo not drawn), the EC50 (in data set [1]; at Streptokinase A; in the data set with Streptococcus) was > 150 µM (not active) in each case.

As to `N#Cc1ccc(CN2CC[C@@]3(CCCN(C(=O)c4ccncc4)C3)C2)cc1`, the AC50 was 39.8 µM (inconclusive) at Cytochrome P450 1A2, 20 µM (inconclusive) on Cytochrome P450 2D6 and 31.6 µM (inconclusive) on Cytochrome P450 2C9.

In the case of `CSc1nc2n(n1)C(c1cccc(F)c1)C(C(=O)Nc1ccc(C)cc1C)=C(C)N2` (stereo not drawn), the values for the AC50 on Cytochrome P450 3A4 and on Cytochrome P450 2C9 were 0.708 µM (inconclusive) and 3.98 µM (inconclusive), respectively.

With `Cc1cccc(C)c1OCC(=O)Nc1ccccc1N1CCCCC1`, the EC50 is 3.36 µM (active) in data set [1], 4.15 µM (active) on Streptokinase A and 12.5 µM (active) in the data set on Streptococcus.

On to `CCOC(=O)C1=C(N)Oc2ccc3ccccc3c2C1c1ccc(O)cc1` (stereo not drawn), for which the EC50 was 8.94 µM (active) in data set [1], 11.5 µM (active) on Streptokinase A and > 150 µM (not active) in the data set on Streptococcus.

On to `CC(C)c1ccc(CNc2cc(N3CCCC3)ccc2[N+](=O)[O-])cc1`, for which the AC50 at Cytochrome P450 2C9 was 2.24 µM (inconclusive).

For the compound `CNc1ccc(C2(O)C(=O)c3ccccc3C2=O)cc1`, the AC50 in data set [2] is 0.664 µM (active).

Consider `CCC(CC)C(=O)Nc1c2c(nn1-c1ccc(OC)cc1)CS(=O)(=O)C2`, for which the AC50 at Cytochrome P450 3A4 was 25.1 µM (inconclusive); on Cytochrome P450 2C19 (read-out: AC50), 35.5 µM (inconclusive).

For the compound `C[C@@H]1CN([C@H](C)CO)C(=O)c2cc(NS(=O)(=O)c3ccc(Cl)cc3)ccc2O[C@@H](C)CCCCO[C@H]1CN(C)C(=O)C1CCCCC1`, the AC50 at Paired box protein Pax-8 was 15.8 µM (active).

As to `CN1CCN(c2ncc3nc(CCc4ccccc4)c(=O)n(Cc4cccs4)c3n2)CC1`, the AC50 at Cytochrome P450 3A4 was 12.6 µM (inconclusive); at Cytochrome P450 2D6, 20 µM (inconclusive); on Cytochrome P450 2C19 (read-out: AC50) it was 39.8 µM (inconclusive).

Turning to `CCCCOc1ccc(C(=O)N/C(=C\c2cccc([N+](=O)[O-])c2)C(=O)OCCC)cc1`, the AC50 at Cytochrome P450 2C9 is 0.708 µM (inconclusive).

As to `N#Cc1cccc(-c2ccc3ncnc(NCc4cccs4)c3c2)c1`, the AC50 on Cytochrome P450 2D6 was 12.6 µM (inconclusive); at Cytochrome P450 2C9, 0.501 µM (inconclusive).

For the compound `Cc1ccc2nc(Nc3ccccc3O)nc(-c3ccccc3)c2c1`, the figures for the AC50 on Cytochrome P450 3A4, at Cytochrome P450 2D6 and at Cytochrome P450 2C19 (read-out: AC50) were 35.5 µM (inconclusive), 3.55 µM (inconclusive) and 2.24 µM (inconclusive), respectively.

Take `C[N+](C)(C)CCC(=O)c1cccc2ccccc12`: the AC50 is 0.2 µM (inconclusive) at Cytochrome P450 3A4, 10 µM (inconclusive) at Cytochrome P450 2D6 and 12.6 µM (inconclusive) on Cytochrome P450 2C9.

As to `Sc1nnc(-c2ccccc2)c(-c2ccccc2)n1`, the AC50 in [2] is 0.567 µM (active).

With `CCC1=C(C[C@H]2NCCc3cc(OC)c(OC)cc32)C[C@H]2c3ccccc3CCN2C1`, the AC50 on Cytochrome P450 3A4 and at Cytochrome P450 2C9 was 3.16 µM (inconclusive) throughout.

Take `COc1ccc(CC(=O)N/N=C(\C)CC(=O)Nc2ccc(N(C)C)cc2)cc1`: the AC50 in data set [2] is 2.04 µM (active).

As for `CCN(CC)C(=O)c1csc(Nc2ccc(C)cc2)n1`, in data set [2], the AC50 is 5.19 µM (active).

`CN(C)c1ccc(/C=N/NC(=O)c2ccc3c(c2)OCO3)cc1`: in [2], the AC50 is 4.72 µM (active).

Take `Cc1ccc(Nc2nc(CSc3n[nH]c(N)n3)cs2)cc1`: the AC50 in data set [2] was < 0.005 µM (active).

As for `Cc1cccc(OCc2nnc(S)n2-c2ccccc2)c1`, the AC50 in data set [2] is 1.6 µM (active).

Take `CN1c2ccc([N+](=O)[O-])cc2C(C)(C)C12C=Cc1cc(C(=O)O)ccc1O2` (stereo not drawn): in data set [2], the AC50 was 1.47 µM (active).

As to `CC(NC(=O)CCCCCNC(=O)N1CCn2c1nc1ccccc12)c1ccccc1` (stereo not drawn), in data set [2], the AC50 is 4.51 µM (active).

Consider `CC/C(=N\NC(=S)Nc1cc(C)ccc1C)c1ccc(OC(F)F)cc1`, for which the EC50 in [1] was 6.27 µM (active); on Streptokinase A it was > 150 µM (not active); in the data set on Streptococcus it was 11.8 µM (active).

As for `COc1ccccc1CNC(=O)C1CC(=O)N(C2CCCC2)C1` (stereo not drawn), the AC50 on Cytochrome P450 3A4 was 22.4 µM (inconclusive); at Cytochrome P450 2C9 it was 0.0224 µM (inconclusive); on Cytochrome P450 2C19 (read-out: AC50), 28.2 µM (inconclusive).

As to `Cc1ccccc1NC(=O)C(=O)NC(C)CCc1ccccc1` (stereo not drawn), the EC50 (in data set [1]; on Streptokinase A; with Streptococcus) was > 150 µM (not active) in each case.

`CCN(CC)CCCNC(=O)C1CCC(=O)N(c2ccc(OC)cc2)C1c1ccc(F)cc1` (stereo not drawn): the AC50 is 39.8 µM (inconclusive) on Cytochrome P450 2C9 and “inconclusive” on Cytochrome P450 2C19.

Take `CC(C)(C)NC(=O)C(=O)NNC(=O)c1ccccc1`: the AC50 is 1.78 µM (inconclusive) on Cytochrome P450 2C9 and “inconclusive” on Cytochrome P450 2C19.

For `Oc1cccc2ccc(/C=C/c3c(F)cccc3Cl)nc12`, the EC50 in [1] is 0.589 µM (active); on Streptokinase A it was > 150 µM (not active); in the data set on Streptococcus, 32.2 µM (active).

As for `COc1ccc(Cc2nnc(NC(=O)c3ccc(Cl)c([N+](=O)[O-])c3)s2)cc1`, the AC50 on Cytochrome P450 3A4 is 0.631 µM (inconclusive); at Cytochrome P450 2C9, 1.41 µM (inconclusive).

For the compound `CCCCC(NC(=O)CCc1c(C)c2cc3c4c(oc3c(C)c2oc1=O)CCCC4)C(=O)O` (stereo not drawn), in data set [2], the AC50 is 7.78 µM (active).

As to `CCOc1cc(CNc2ccc(OC)cc2)cc(Br)c1OCC(=O)NC(C)(C)C`, the AC50 at Cytochrome P450 2C9 was 7.08 µM (inconclusive).

On to `CNS(=O)(=O)c1cnccc1N1CCN(c2cccc(C)c2)CC1`, for which, in data set [2], the AC50 was < 0.005 µM (active).

With `CCC1C(=O)N=C(SCC(=O)Nc2ccc(C(=O)OC)cc2)NC1=O` (stereo not drawn), the AC50 at Cytochrome P450 2C9 was 31.6 µM (inconclusive).

Consider `Cc1nnc(O)c2c(NC(=O)CSc3nnnn3-c3ccccc3)oc(C)c12`, for which the EC50 (in [1]; at Streptokinase A; in the data set with Streptococcus) was > 150 µM (not active) throughout.

In the case of `COC(=O)c1cnn(C(=O)c2ccccc2Br)c1N`, at Cytochrome P450 2C9, the AC50 was 22.4 µM (inconclusive).

Regarding `Cc1ccccc1N=Nc1c(N)n[nH]c1N`, the half-maximal activity concentration (AC50) in data set [2] was 5.72 µM (active).

Take `Cc1nn(CC(O)CN2c3ccccc3Sc3ccccc32)c(C)c1Br` (stereo not drawn): the EC50 in [1] is 3.47 µM (active); at Streptokinase A, 8 µM (active); with Streptococcus it was 21.4 µM (active).

With `COc1cc(NC(=O)c2ccccc2Cl)ccc1NC(=O)c1ccco1`, the AC50 was 17.8 µM (inconclusive) on Cytochrome P450 1A2, 22.4 µM (inconclusive) at Cytochrome P450 2D6 and 1.12 µM (inconclusive) on Cytochrome P450 2C9.

With `Cc1cccc(-n2c(-c3ccoc3C)n[nH]c2=S)c1`, the AC50 in [2] is 7.34 µM (active).

A word on the AC50: it is the midpoint of the concentration-response curve, whichever way the signal moves. By EC50 is commonly meant the concentration that produces a half-maximal response.

Values taken from ChEMBL document CHEMBL1201862, “PubChem BioAssay data set” (2004).
